Measurements published in patent publication US8580764B2, “Combinational compositions and methods for treatment of cancer” (ArQule, Inc., priority 2010, dated 2013).
Read-outs that look alike come from different tables or passages of the source.

Tests used:
c-Met = molecular target: T1, c-Met (Homo sapiens, UniProt P08581); details: c-Met expressing cancer cell lines; cited from earlier work
T1 construct: Exposure of c-Met expressing cancer cell lines; endogenous in cells

cancer cells [1] = assay: Cell cycle analysis of dosing regimen A (FIG. 8); assay type: cell-based; details: dosing regimen A of FIG. 3
Protocol: (§1) Cells were plated on day 0.

human tumors = details: multiple mouse xenograft efficacy studies; cited from earlier work
cell cycle check point = assay: Activation of cell cycle check point during dosing regimen A (FIG. 9); assay type: cell-based; details: dosing regimen A of FIG. 3
Protocol: as §1

cancer cells [2] = details: cited from earlier work

T1 sequence (P08581 25-1390): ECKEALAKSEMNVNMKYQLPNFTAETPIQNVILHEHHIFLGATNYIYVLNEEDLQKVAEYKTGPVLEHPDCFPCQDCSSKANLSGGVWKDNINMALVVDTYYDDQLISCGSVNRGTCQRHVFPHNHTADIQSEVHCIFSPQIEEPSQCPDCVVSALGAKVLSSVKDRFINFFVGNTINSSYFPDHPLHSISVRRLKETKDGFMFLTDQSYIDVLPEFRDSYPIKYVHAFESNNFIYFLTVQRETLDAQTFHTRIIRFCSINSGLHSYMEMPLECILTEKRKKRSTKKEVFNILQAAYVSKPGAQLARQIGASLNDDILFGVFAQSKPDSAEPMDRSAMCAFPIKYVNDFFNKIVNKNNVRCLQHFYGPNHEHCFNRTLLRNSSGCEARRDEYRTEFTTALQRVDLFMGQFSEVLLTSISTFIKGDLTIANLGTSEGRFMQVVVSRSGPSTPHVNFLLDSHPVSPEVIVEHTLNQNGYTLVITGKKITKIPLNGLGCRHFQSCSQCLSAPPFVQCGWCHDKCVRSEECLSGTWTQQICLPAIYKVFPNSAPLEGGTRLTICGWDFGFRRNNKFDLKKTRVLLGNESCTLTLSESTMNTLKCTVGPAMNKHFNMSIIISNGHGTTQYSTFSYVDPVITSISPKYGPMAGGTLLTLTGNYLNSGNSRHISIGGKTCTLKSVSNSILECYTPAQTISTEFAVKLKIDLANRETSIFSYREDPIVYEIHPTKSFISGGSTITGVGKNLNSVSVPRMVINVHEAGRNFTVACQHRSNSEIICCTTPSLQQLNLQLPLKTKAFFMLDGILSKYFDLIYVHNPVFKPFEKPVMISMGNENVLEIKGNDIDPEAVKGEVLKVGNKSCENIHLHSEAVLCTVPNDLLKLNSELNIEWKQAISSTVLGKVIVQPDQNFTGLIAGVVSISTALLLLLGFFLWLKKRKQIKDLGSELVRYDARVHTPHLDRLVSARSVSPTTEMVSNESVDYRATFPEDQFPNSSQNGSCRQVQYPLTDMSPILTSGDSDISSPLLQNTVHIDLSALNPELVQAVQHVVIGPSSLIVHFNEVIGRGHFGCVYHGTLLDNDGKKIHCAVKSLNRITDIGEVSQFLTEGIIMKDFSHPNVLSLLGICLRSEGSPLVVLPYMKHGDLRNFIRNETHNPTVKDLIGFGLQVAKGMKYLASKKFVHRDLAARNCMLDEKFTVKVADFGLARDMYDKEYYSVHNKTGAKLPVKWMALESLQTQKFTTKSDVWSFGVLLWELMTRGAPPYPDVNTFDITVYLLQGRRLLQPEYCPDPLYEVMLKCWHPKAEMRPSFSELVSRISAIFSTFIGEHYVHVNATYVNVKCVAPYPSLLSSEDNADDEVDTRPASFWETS

| SMILES | phospho-c-Met levels and cell death (c-Met) | cell cycle arrest (cancer cells [1]) | growth of human tumors (human tumors) | activation of cell cycle check point (cell cycle check point) | cell cycle arrest (cancer cells [2]) |
| --- | --- | --- | --- | --- | --- |
| O=C1NC(=O)[C@@H](c2cn3c4c(cccc24)CCC3)[C@@H]1c1c[nH]c2ccccc12 [Agent A, (−)-trans-3-(5,6-dihydro-4H-pyrrolo[3,2,1-ij]quinolin-1-yl)-4-(1H-indol-3-yl)pyrrolidine-2,5-dione] | decrease in phospho-c-Met levels with eventual apoptotic cell death | G2/M arrest | inhibited the growth of human tumors | – | – |
| Nc1ccn([C@@H]2O[C@H](CO)[C@@H](O)C2(F)F)c(=O)n1 [gemcitabine] | – | S-phase arrest | – | activation of cell cycle check point | arrest cancer cells in G1/S phase |
